SMILES strings stand for the structures.

Usually IC50 stands for the concentration that inhibits the measured activity by half. A lower IC50 goes with inhibition by little substance.

For one assay, the target named is PARP1 (Homo sapiens, UniProt P09874). The assay can be described thus: PARP1 biochemical DELFIA assay (auto-PARylation). Particulars: Table 1.
Sequence of PARP1 (P09874 whole entry): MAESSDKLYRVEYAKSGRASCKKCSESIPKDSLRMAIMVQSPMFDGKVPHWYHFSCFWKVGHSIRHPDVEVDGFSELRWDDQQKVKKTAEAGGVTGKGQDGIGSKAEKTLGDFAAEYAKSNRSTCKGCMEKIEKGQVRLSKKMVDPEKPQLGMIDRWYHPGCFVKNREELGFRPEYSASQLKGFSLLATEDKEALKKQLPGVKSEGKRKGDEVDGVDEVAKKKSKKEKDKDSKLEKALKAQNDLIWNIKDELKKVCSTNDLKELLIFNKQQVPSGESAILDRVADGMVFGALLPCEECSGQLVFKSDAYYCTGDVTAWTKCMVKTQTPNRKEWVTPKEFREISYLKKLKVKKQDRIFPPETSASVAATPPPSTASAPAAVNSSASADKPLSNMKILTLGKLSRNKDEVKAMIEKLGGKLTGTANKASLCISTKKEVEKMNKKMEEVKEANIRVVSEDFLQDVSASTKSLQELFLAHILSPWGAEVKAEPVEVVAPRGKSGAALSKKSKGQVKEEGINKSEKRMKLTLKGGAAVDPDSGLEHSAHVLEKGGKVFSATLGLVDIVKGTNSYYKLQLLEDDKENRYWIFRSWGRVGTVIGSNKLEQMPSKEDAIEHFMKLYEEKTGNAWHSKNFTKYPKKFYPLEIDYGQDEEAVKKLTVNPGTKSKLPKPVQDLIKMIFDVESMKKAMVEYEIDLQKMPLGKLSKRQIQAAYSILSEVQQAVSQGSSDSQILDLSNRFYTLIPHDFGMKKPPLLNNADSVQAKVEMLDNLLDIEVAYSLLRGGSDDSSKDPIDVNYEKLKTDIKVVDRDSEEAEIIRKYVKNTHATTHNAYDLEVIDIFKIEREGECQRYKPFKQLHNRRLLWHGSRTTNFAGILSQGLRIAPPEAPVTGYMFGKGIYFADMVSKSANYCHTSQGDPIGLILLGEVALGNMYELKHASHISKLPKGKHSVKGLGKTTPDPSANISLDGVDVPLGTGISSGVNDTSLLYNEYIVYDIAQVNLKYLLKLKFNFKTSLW
Description: Prior to assay, wells were washed 3×5 min in coating wash buffer.
% data was fitted to a non-linear regression equation (log inhibitor vs response-variable slope 4-parameters) to obtain IC50 values.
Consider `O=C(CCN1CCCC(c2cc(C(F)(F)F)c(=O)[nH]n2)C1)N1CCN(c2ncc(F)cn2)CC1` (racemic) [Compound 17rac], for which the half-inhibitory concentration (IC50) lay in the range of 100 to 1000 nM. For `O=C(CCN1CCCC(c2cc(C(F)(F)F)c(=O)[nH]n2)C1)N1CCN(c2ccc(F)cn2)CC1` (single isomer, unassigned) [Compound 8b], the IC50 lay in the range of 100 to 1000 nM. Compound `O=C(CN1CCCC1c1cc(C(F)(F)F)c(=O)[nH]n1)N1CCN(c2ncc(C(F)(F)F)cn2)CC1` (single isomer, unassigned) [Compound 24b, 6-(1-(2-oxo-2-(4-(5-(trifluoromethyl)pyrimidin-2-yl)piperazin-1-yl)ethyl)pyrrolidin-2-yl)-4-(trifluoromethyl)pyridazin-3(2H)-one] returned a half-maximal inhibitory concentration (IC50) of 10 to 100 nM. On the same count and under the same terms, next, `O=C(CCN1CCCC(c2cc(C(F)(F)F)c(=O)[nH]n2)C1)N1CCN(c2ncc(C(F)(F)F)cn2)CC1` (single isomer, unassigned) [Compound 1a, 6-(1-(3-oxo-3-(4-(5-(trifluoromethyl)pyrimidin-2-yl)piperazin-1-yl)propyl)piperidin-3-yl)-4-(trifluoromethyl)pyridazin-3(2H)-one]: 100 to 1000 nM; `O=C(CCN1CCCC(c2cc(C(F)(F)F)c(=O)[nH]n2)C1)N1CCN(c2ncc(C(F)(F)F)s2)CC1` (single isomer, unassigned) [Compound 27a]: 10 to 100 nM; `CCc1cc(C2CCCN(CCC(=O)N3CCN(c4ncc(C(F)(F)F)cn4)CC3)C2)n[nH]c1=O` (single isomer, unassigned) [Compound 6b, 4-ethyl-6-(1-(3-oxo-3-(4-(5-(trifluoromethyl)pyrimidin-2-yl)piperazin-1-yl)propyl)piperidin-3-yl)pyridazin-3(2H)-one]: 100 to 1000 nM.

Turning to `O=C(CCN1CCCCC(c2cc(C(F)(F)F)c(=O)[nH]n2)C1)N1CCN(c2ncc(C(F)(F)F)cn2)CC1` (racemic) [Compound 12rac], the IC50 lay in the range of 100 to 1000 nM. Turning to `O=C(CN1CCCC(c2cc(C(F)(F)F)c(=O)[nH]n2)C1)N1CCN(c2ncc(C(F)(F)F)cn2)CC1` (single isomer, unassigned) [Compound 14a], the IC50 was in the range of 10 to 100 nM. On to `O=C(CCN1CCCC(c2cc(C(F)(F)F)c(=O)[nH]n2)C1)N1CCN(c2ccc(Cl)cn2)CC1` (single isomer, unassigned) [Compound 15a], for which the IC50 lay within 100 to 1000 nM.

Compound `CNC(=O)c1ccc(N2CCN(C(=O)CCN3CCCC(c4cc(C(F)(F)F)c(=O)[nH]n4)C3)CC2)nc1` (single isomer, unassigned) [Compound 28a] returned an IC50 of 100 to 1000 nM. `O=C(CCN1CCN(c2ncc(C(F)(F)F)cn2)CC1)N1CCCC(c2cc(C(F)(F)F)c(=O)[nH]n2)C1` (single isomer, unassigned) [Compound 9a]: the IC50 was in the range of 100 to 1000 nM.

Compound `O=C(CCN1CCCC1c1cc(C(F)(F)F)c(=O)[nH]n1)N1CCN(c2ncc(C(F)(F)F)cn2)CC1` (single isomer, unassigned) [Compound 18b, 6-(1-(3-oxo-3-(4-(5-(trifluoromethyl)pyrimidin-2-yl)piperazin-1-yl)propyl)pyrrolidin-2-yl)-4-(trifluoromethyl)pyridazin-3(2H)-one] had an IC50 of 10 to 100 nM. On the same count and under the same terms, in the case of `N#Cc1ccc(N2CCN(C(=O)CCN3CCCC(c4cc(C(F)(F)F)c(=O)[nH]n4)C3)CC2)nc1` (single isomer, unassigned) [Compound 11b] it was 100 to 1000 nM.

The assay is the same for the next values; noted with them: Table 1A.
For the compound `O=C(CN1CCCC1c1cc(Cl)c(=O)[nH]n1)N1CCN(c2ncc(C(F)(F)F)cn2)CC1` (racemic) [Compound 68rac, 4-chloro-6-(1-(2-oxo-2-(4-(5-(trifluoromethyl)pyrimidin-2-yl)piperazin-1-yl)ethyl)pyrrolidin-2-yl)pyridazin-3(2H)-one], the IC50 lay within 100 to 1000 nM.

As to `O=C(CN1CCCC1c1cc(C(F)(F)F)c(=O)[nH]n1)N1CCN(c2ccc(F)cn2)CC1` (single isomer, unassigned) [Compound 46b], the IC50 fell in the range of 100 to 1000 nM. Compound `N#Cc1cc(Cl)cnc1N1CCN(C(=O)CN2CCCC2c2cc(C(F)(F)F)c(=O)[nH]n2)CC1` (single isomer, unassigned) [Compound 144a] returned an IC50 of 10 to 100 nM. Compound `N#Cc1cc(F)cnc1N1CCN(C(=O)CN2CCCC2c2cc(C(F)(F)F)c(=O)[nH]n2)CC1` (single isomer, unassigned) [Compound 146a] registered an IC50 of 100 to 1000 nM.

Take `O=C(CCN1CCC(c2cc(C(F)(F)F)c(=O)[nH]n2)CC1)N1CCN(c2ncc(C(F)(F)F)cn2)CC1` [Compound 61]: the IC50 was in the range of 100 to 1000 nM.

For `O=C(CN1CCCC1c1cc(C(F)(F)F)c(=O)[nH]n1)N1CCN(c2ncc(F)cc2C(F)(F)F)CC1` (single isomer, unassigned) [Compound 120b], the IC50 is over 10000 nM. Turning to `O=C(CN1CCCC1c1cc(C(F)(F)F)c(=O)[nH]n1)N1CCN(c2ccc(C(F)(F)F)cn2)CC1` (single isomer, unassigned) [Compound 42a], the concentration for half-maximal inhibition (IC50) is 1000 to 10000 nM. For `CC1(C)C[C@H](c2cc(C(F)(F)F)c(=O)[nH]n2)N(CC(=O)N2CCN(c3ncc(C(F)(F)F)cn3)CC2)C1` [Compound 94a], the IC50 was 10 to 100 nM.

In turn, `N#Cc1ccc(N2CCN(C(=O)CN3CCCC3c3c[nH]c(=O)c(C(F)(F)F)c3)CC2)nc1` (single isomer, unassigned) [Compound 77a] showed an IC50 of 1000 to 10000 nM.

Take `O=C(CN1CCCC1c1cc(C(F)(F)F)c(=O)[nH]n1)N1CCN(c2cnc(C(F)(F)F)cn2)CC1` (single isomer, unassigned) [Compound 45a]: the IC50 is 10 to 100 nM. `O=C(CN1CCCC1c1c[nH]c(=O)c(C(F)(F)F)n1)N1CCN(c2ncc(C(F)(F)F)cn2)CC1` (single isomer, unassigned) [Compound 84b, 5-(1-(2-oxo-2-(4-(5-(trifluoromethyl)pyrimidin-2-yl)piperazin-1-yl)ethyl)pyrrolidin-2-yl)-3-(trifluoromethyl)pyrazin-2(1H)-one] came in with an IC50 of 1000 to 10000 nM. Consider `N#Cc1cnc(N2CCN(C(=O)CN3CCCC3c3cc(C(F)(F)F)c(=O)[nH]n3)CC2)s1` (racemic) [Compound 44rac], for which the IC50 lay within 10 to 100 nM.

For the compound `Cn1c(N2CCN(C(=O)CN3CCCC3c3cc(C(F)(F)F)c(=O)[nH]n3)CC2)nc2ccccc21` (single isomer, unassigned) [Compound 97b], the IC50 was in the range of 1000 to 10000 nM.

On to `O=C(CN1CCCC1c1cc(C(F)(F)F)c(=O)[nH]n1)N1CCN(c2ccc(Cl)cn2)CC1` (single isomer, unassigned) [Compound 41a], for which the IC50 fell in the range of 10 to 100 nM. In turn, `N#Cc1ccc2oc(N3CCN(C(=O)CN4CCCC4c4cc(C(F)(F)F)c(=O)[nH]n4)CC3)nc2c1` (single isomer, unassigned) [Compound 100a] came in with an IC50 of 10 to 100 nM. `O=C(CN1CCCC1c1cc(C(F)(F)F)c(=O)[nH]n1)N1CCN(c2nc3cc(F)ccc3o2)CC1` (single isomer, unassigned) [Compound 93b] came in with an IC50 of 1000 to 10000 nM. For `O=C(CN1CCCC1c1cc(C(F)(F)F)c(=O)[nH]n1)N1CCN(c2ccc(Cl)cn2)CC1` (single isomer, unassigned) [Compound 41b], the IC50 was 1000 to 10000 nM. `O=C(CCN1CCC(c2n[nH]c(=O)c3ccccc23)CC1)N1CCN(c2ncc(C(F)(F)F)cn2)CC1` [Compound 49] displayed a half-inhibitory concentration (IC50) of 10 to 100 nM. As to `O=C(CN1CCCC1c1cc(C(F)(F)F)c(=O)[nH]n1)N1CC2(CCN(c3ncc(C(F)(F)F)cn3)CC2)C1` (single isomer, unassigned) [Compound 110b], the IC50 lay within 1000 to 10000 nM.

In turn, `CC(C)(C)c1cnc(N2CCN(C(=O)CN3CCCC3c3cc(C(F)(F)F)c(=O)[nH]n3)CC2)nc1` (single isomer, unassigned) [Compound 82b] showed an IC50 of 1000 to 10000 nM. On the same count and under the same terms, in the case of `CCc1cc(C2CCCN2CC(=O)N2CCN(c3ncc(C(F)(F)F)cn3)CC2)n[nH]c1=O` (single isomer, unassigned) [Compound 40b] it was 1000 to 10000 nM; in that of `O=C(CN1CCC(c2cc(C(F)(F)F)c(=O)[nH]n2)CC1)N1CCN(c2ncc(C(F)(F)F)cn2)CC1` [Compound 62], 100 to 1000 nM; in that of `O=C(CN1CCCC1c1cc(C(F)(F)F)c(=O)[nH]n1)N1CCN(c2ncc(Cl)cc2Cl)CC1` (single isomer, unassigned) [Compound 125a], 100 to 1000 nM. The same measure, in the same setting: next, `CNC(=O)c1ccc(N2CCN(C(=O)CCN3CCCC3c3c[nH]c(=O)c(C(F)(F)F)c3)CC2)cn1` (single isomer, unassigned) [Compound 73b]: 1000 to 10000 nM.

On to `CC(C)(C)c1cnc(N2CCN(C(=O)CN3CCCC3c3cc(C(F)(F)F)c(=O)[nH]n3)CC2)nc1` (single isomer, unassigned) [Compound 82a], for which the IC50 lay in the range of 10 to 100 nM. Compound `CN(C(=O)CN1CCCC1c1cc(C(F)(F)F)c(=O)[nH]n1)C1CCN(c2ncc(C(F)(F)F)cn2)CC1` (single isomer, unassigned) [Compound 34b] yielded an IC50 of 1000 to 10000 nM. The compound `O=C(CN1CCCC1c1cc(C(F)(F)F)c(=O)[nH]n1)N1CCN(c2nc3ccc(F)cn3n2)CC1` (single isomer, unassigned) [Compound 128b] yielded an IC50 of 1000 to 10000 nM.

Turning to `O=C(CN1Cc2ccccc2C1c1cc(C(F)(F)F)c(=O)[nH]n1)N1CC(Oc2ncc(C(F)(F)F)cn2)C1` (single isomer, unassigned) [Compound 114b], the IC50 lay within 1000 to 10000 nM. With `O=C(CN1CCCC1c1cc(C(F)(F)F)c(=O)[nH]n1)N1CCN(c2ncc(F)cc2F)CC1` (single isomer, unassigned) [Compound 83a], the IC50 lay in the range of 100 to 1000 nM. On to `CC1(C)CC(c2cc(C(F)(F)F)c(=O)[nH]n2)N(CC(=O)N2CCN(c3ncc(C(F)(F)F)cn3)CC2)C1` (single isomer, unassigned) [Compound 94b], for which the IC50 was in the range of 1000 to 10000 nM.

Take `CCc1cc(C2CCCN2CC(=O)N2CCN(c3ncc(C(F)(F)F)cn3)CC2)c[nH]c1=O` (single isomer, unassigned) [Compound 57b]: the IC50 lay within 1000 to 10000 nM. For the compound `O=C(CN1CCCC1c1cc(C(F)(F)F)c(=O)[nH]n1)N1CCN(c2ncc(F)cn2)CC1` (single isomer, unassigned) [Compound 43b], the IC50 was in the range of 1000 to 10000 nM. Same read-out and setting: next, `N#Cc1cnc(N2CCN(C(=O)CN3CCCC3c3c[nH]c(=O)c(C(F)(F)F)c3)CC2)nc1` (single isomer, unassigned) [Compound 76b]: 100 to 1000 nM; `O=C(CN1CCCC1c1cc(C(F)(F)F)c(=O)[nH]n1)N1CCN(c2ccc(C(F)(F)F)cn2)CC1` (single isomer, unassigned) [Compound 42b]: 10 to 100 nM.

Values taken from patent publication US20260193238A1, “PHARMACEUTICAL COMPOUNDS AS PARP7 AND/OR PARP1 INHIBITORS” (Duke Street Bio Limited, priority 2022, published 2026).
